Reference: article PMC3210109, “Flexible catalytic site conformations implicated in modulation of HIV-1 protease autoprocessing reactions” (Retrovirology, 2011)

Key:
[1] = system: in vitro translated Gag-Pol precursor; parameters: method as in PMID 15280456; conditions: ref [21]; cited from earlier work
[2] = target: embedded protease of GST-p6*-PR^NL-HA / GST-M1-PR^NL-HA fusion precursor (proximal site) (Human immunodeficiency virus type 1, UniProt P12497); assay: P site cleavage reaction mediated by the embedded protease, PR^NL fusion precursor, HEK293T cells; format: cell-based, HIV-1; conditions: darunavir; embedded vs released protease
Experimental: (§1) HEK293T cells (ATCC, Manassas, VA) were maintained in DMEM containing 10% fetal bovine serum and penicillin/streptomycin (0.6% Penicillin G sodium salt, 1.0% Streptomycin sulfate, 0.85% NaCl). Plasmid DNA was transfected into HEK293T cells using calcium phosphate as previously described [25, 46]. Briefly, HEK293T cells were seeded in 12-well plates the day before transfection to achieve 50~60% confluence at the time of transfection. About 1 h prior to transfection, chloroquine was added into each well to a final concentration of 25 μM. A total of 0.5 μg plasmid DNA in 65.7 μl H2O was mixed with 9.3 μl of 2 M CaCl2. Then 75 μl of 2xHBS (50 mM Hepes, pH7.04~7.05, 10 mM KCl, 12 mM Dextrose, 280 mM NaCl, 1.5 mM Na2HPO4) was added to the DNA-Ca mixture followed by gentle agitation. The resulting mixture was directly added drop-wise to each well. […] After 7-8 h incubation at 37°C, 5% CO2, the transfection medium was replaced with fresh chloroquine-free medium containing the corresponding protease inhibitors. […]
(§2) For quantification of protein intensity, Western blot images captured by an Odyssey infrared dual laser scanning unit were analyzed using TotalLab software (Nonlinear Dynamics Inc.). The total pixel volume of each band was quantified and normalized; the highest value was arbitrarily set at 1000.

PR^NL H69D precursor = target: T1, PR^NL H69D precursor (Human immunodeficiency virus type 1 group M subtype B, UniProt P12497, H557D); format: cell-based, HIV-1; conditions: darunavir, Figure 2F
T1 construct: expressed in transfected cells; host or cells: HEK293T
Experimental: as §1, §2

[3] = system: embedded protease of GST-M2-PR (tagless precursor); assay: P site cleavage reaction, tagless precursor GST-M2-PR; format: cell-based, HIV-1; parameters: dose or concentration left out as unconfirmed; conditions: […] nM darunavir
Text: To examine whether different amino acid sequences fused to the C-terminus of PR influence protease autoprocessing, we engineered a panel of fusion precursors carrying different C-terminal epitopes (Figure 5A). A truncated version of M2 p6* (Figure 2A) was used to allow focused examination of the P site cleavage reaction. We also constructed GST-M2-PR, a precursor lacking any C-terminal epitope, to serve as a reference control.
HEK293T cells (ATCC, Manassas, VA) were maintained in DMEM containing 10% fetal bovine serum and penicillin/streptomycin (0.6% Penicillin G sodium salt, 1.0% Streptomycin sulfate, 0.85% NaCl). Plasmid DNA was transfected into HEK293T cells using calcium phosphate as previously described [25, 46]. Briefly, HEK293T cells were seeded in 12-well plates the day before transfection to achieve 50~60% confluence at the time of transfection. About 1 h prior to transfection, chloroquine was added into each well to a final concentration of 25 μM. A total of 0.5 μg plasmid DNA in 65.7 μl H2O was mixed with 9.3 μl of 2 M CaCl2. […]
as §2

[4] = system: HIV-1 infected cells (p24 production); conditions: ref [40],[41], read-out: IC50 to inhibit the production of p24; cited from earlier work
mature protease = conditions: ref [40],[41]; cited from earlier work

Structure (SMILES) | sensitivity of Gag-Pol precursor to inhibition compared to the mature protease [1] | embedded protease less sensitive to inhibition than the corresponding released protease [2] | suppression of autoprocessing reactions mediated by the embedded H69D PR (PR^NL H69D precursor) | effect of treatment on the amount of the released proteases (H69D) (PR^NL H69D precursor; PR^NL H69D precursor) | suppression of the cleavage reaction, tagless precursor [3] | IC50 [4] | affinity for the catalytic site of the mature protease (mature protease)
CC(C)c1nc(CN(C)C(=O)N[C@H](C(=O)N[C@@H](Cc2ccccc2)C[C@H](O)[C@H](Cc2ccccc2)NC(=O)OCc2cncs2)C(C)C)cs1 [ritonavir] | significantly low sensitivity | – | – | – | – | – | –
CC(C)CN(C[C@@H](O)[C@H](Cc1ccccc1)NC(=O)O[C@H]1CO[C@H]2OCC[C@H]21)S(=O)(=O)c1ccc(N)cc1 [darunavir] | – | at least 100 fold | not suppressed | did not increase | not suppressed | ~5 nM | low nanomolar
